Data from patent US20240115647A1, “COMPOSITION COMPRISING FLAVANOL MONOMERS AND E-VINIFERIN” (ACTIV'INSIDE, priority 2020, published 2024).

Tested on: tyrosinase
Assay: tyrosinase activity, colorimetric reaction with L-DOPA substrate (absorbance 475 nm)
Format: biochemical
Protocol: The aim of this test is to model the activity of an enzyme, tyrosinase (the enzyme responsible for melanin formation) using an experimental design and to determine the influence of flavanol monomers and ε-viniferin on enzymatic activity with respect to a specific substrate (L-DOPA). Tyrosinase activity was measured in vitro using a colorimetric reaction. Under the action of tyrosinase, L-DOPA is oxidized and converted into dopaquinone. The formation of dopaquinone can thus be monitored by spectrometry at 475 nm.
In a 96-well plate, the following amounts were deposited in each well: 80 μl phosphate buffer (50 mM), 40 μl of sample to be tested or buffer, 40 μl of tyrosinase at 125 U/ml. At the last moment, 40 μl of L-DOPA (2.5 mM) was added to initiate the reaction and then absorbance at 475 nm was monitored for 25 min.
For each well, the absorbance values over time (Ax) are normalized relative to the first absorbance measurement (AT0) according to the following formula: Normalized absorbance (An)=Ax−AT0. The normalized absorbances are then corrected (for each time) according to the following formula: Corrected normalized absorbance (Anc)=An−ACLT, where ACLT is the value of the normalized absorbance of the reagents in the presence of the sample (buffer+tyrosinase+sample). […]
To this end, tyrosinase activity was monitored and measured in vitro using the colorimetric reaction described above. […]

`Oc1ccc(/C=C/c2cc(O)cc3c2[C@@H](c2cc(O)cc(O)c2)[C@H](c2ccc(O)cc2)O3)cc1` [ε-viniferin] was tested, and the “effect on tyrosinase activity with respect to the L-DOPA substrate” value (experimental design: flavanol monomers 1-50 μM, ε-viniferin 0.0050-0.05 μM, response at 7 min) was “no significant effect” and the “Estimated Coefficient (coded factors) of the model of corrected normalized absorbance” value (linear-quadratic model, central composite design, negative = reduces tyrosinase activity) was −0.0045.
